Test results: US4734282A, “Rodenticidal compositions containing 1,4-naphthoquinone derivatives” (priority 1986, dated 1988)
“And” between values parts separate entries of the source, which are not always exact repeats. Identical values can stand only once. Like-named read-outs stand apart in the source and are kept apart here.

Legend:
[1] = system: rats; details: cited from earlier work
[2] = system: prothrombin complex activity; details: 2 mg/kg sodium warfarin i.v., approximately 19 hours prior to sacrifice; cited from earlier work
[3] = system: vitamin K-dependent carboxylation; assay: in vitro rat hepatic microsomal vitamin K-dependent carboxylation of endogenous substrate, inhibition by vitamin K antagonists; assay type: biochemical; details: for IO (percent inhibition when C = 0), mean: third fit parameter of logistic function; for Slope (% Inhibition/Concentration), mean ± S.D.: slope parameter s of logistic function
Description: (§1) The procedures for preparation of vitamin K-dependent carboxylase and assay of carboxylation were similar to those described in other laboratories (J. Biol. Chem. 251, 2770-2776; Biochim. Biophys. Acta 499, 181-193). Each animal was studied under both control and inhibitory conditions. The rats were rendered unconscious with nitrogen, the liver was quickly excised and minced in a total volume of 2.0 ml ice cold buffer I (0.25M sucrose, 0.025M imidazole, pH 7.20) per gram of liver. The liver was homogenized using 4 passes of a Teflon pestle (clearance 0.15-0.23 mm; Arthur H. Thomas Co., Philadelphia, Pa.) at 300 rpm. The post-mitochondrial supernatant and microsomal pellet were prepared by a published procedure (J. Biol. Chem. 251, 2770-2776). The microsomal pellet was resuspended in buffer II (0.25 M sucrose, 0.025M imidazole, 0.080M KCl, pH 7.20). This suspension supplied both the enzymes (vitamin K-dependent carboxylase and enzymes for vitamin K biotransformations) and endogenous substrates (precursors of vitamin K-dependent proteins) of interest. Microsomal suspension protein concentration was determined by the method of Bradford (Anal. Biochem. 72, 248-254) as described for Bio-Rad reagent and adjusted to approximately 15 mg/ml in buffer II.
(§2) Control, blank, and experimental reaction mixtures were made for each experiment. Control and blank reaction mixtures were made up with vitamin K and without vitamin K, respectively. Experimental reaction mixtures contained both vitamin K and a vitamin K antagonist. The control reaction mixture contained 3.00 ml of microsomal suspension, 0.81 ml of buffer II, 1.20 ml of an ATP-generating system (final concentrations: 1 mM ATP, 10 mM phosphocreatine, 2.5 mM Mg[acetate]2 ·4H2 O, 20 μg/ml creatine phosphokinase [52 U/ml]), 0.60 ml of NADH (final concentration 2 mM), 0.30 ml of dithiothreitol (final concentration 7 mM) dissolved in buffer II, 0.060 ml of NaH^14 CO3 (1.0 μCi/μl; added 0.5 min prior to reaction initiation), and at the time of reaction initiation 0.030 ml of vitamin K1 (final concentration 20 μg/ml) diluted in 0.85% sodium chloride solution. This vitamin K concentration is associated with maximal in vitro incorporation of added H^14 CO3 into vitamin K-dependent substrate proteins (J. Biol. Chem. 251, 2770-2776). The blank reaction mixture consisted of the same components except that vitamin K was replaced by an equal volume of isotonic saline. The experimental reaction mixtures were made up in the same way as the control reaction mixtures with the exceptions that: (1) a volume of buffer II was replaced by a volume of buffer II containing an inhibitor of vitamin K-dependent carboxylation, and (2) all individual volumes were two-thirds of those in the control reaction mixtures. […] Chloro-K1 was formulated as an oil-in-water emulsion with Tween 80 (5% v/v final concentration), while chloro-K3 was formulated as a suspension in Tween 80 (5% v/v final concentration) (Molecular Pharmacology 10, 373-380).
(§3) Reaction mixtures were incubated for 5 minutes at 100 excursions per minute in a reciprocating shaker water bath at 27° . After addition of vitamin K or saline, serial samples (0.45 ml each) were collected from each control and blank reaction tube at 2, 4, 6, 8, 10, 12, 14, 16, 30, 60, 90, and 120 minutes, and from each experimental reaction tube at 2, 4, 6, 8, 10, 12, 14, and 16 minutes. Each 0.45 ml sample was transferred to a tube containing 1 ml of ice-cold 10% TCA. The TCA-precipitated ^14 C-containing protein pellet was then prepared as previously described (J. Biol. Chem. 251, 2770-2776) and radioactivity was determined in an Intertechnique (Plaisir, France) liquid scintillation spectrometer using the external standard method of quench correction.

[4] = system: prothrombin complex activity; assay: in vivo prothrombin complex activity (PCA), its degradation and synthesis rate, from prothrombin time; parameters: species or system rat; details: for PCA° (steady-state prothrombin complex activity before warfarin) / kd (first-order rate constant for degradation of PCA) / R°Syn (rate of synthesis of PCA): individual pretreated rat; for kd (first-order rate constant for degradation of PCA): after 2 mg/kg i.v. warfarin; for R°Syn (rate of synthesis of PCA): PCA° × kd; for reduction in R°Syn: vs normal rats
[5] = system: vitamin K-dependent carboxylation; assay: in vitro vitamin K-dependent carboxylation in liver microsomes of pretreated rats; assay type: biochemical, rat; details: for Normalized P∞ / V/KM (intrinsic formation rate of carboxylated vitamin K-dependent proteins): individual pretreated rat; for V/KM (intrinsic formation rate of carboxylated vitamin K-dependent proteins): liver microsomes about 22 hours after warfarin
Description: as §1, §2
as §3, with “correction. […]” for “correction.”

[6] = percent inhibition of vitamin K-dependent carboxylation vs concentration, logistic fit per animal, vitamin K1 20 μg/ml, 27°, read-out: IC50 (mean ± S.D.)
[7] = range among individual rats, read-out: IC50 (range)

SMILES: CC(=O)CC(c1ccccc1)c1c(O)c2ccccc2oc1=O (stereo not shown) [Warfarin, warfarin]
- LD50 (may actually be as high as) ([1]; in rats): 10 to 50 mg/kg
- LD50 (assumed) ([1]; intravenously administered, assumed value): 0.2 mg/kg
- plasma prothrombin complex activity at the time of sacrifice [2]: ~6 % of normal
- Slope (% Inhibition/Concentration), range ([3]; range among individual rats): 0.637-2.20 % Inhibition/Concentration
- IO (percent inhibition when C = 0), mean [3]: 8.89 ± 3.77%
- IO (percent inhibition when C = 0), mean ([3]; listed as warfarin): 8.9%
- IO (percent inhibition when C = 0), range ([3]; third fit parameter, range among rats): 2.74-13.1%
- IC50 ([3]; warfarin, logistic fit with IO as third parameter, read-out: IC50 (mean ± S.D.)): 6630 ± 2850 µM

SMILES: O=C1c2ccccc2C(=O)C1c1ccccc1 [Phenindione, phenindione]
- IC50 [3, 6]: 19 ± 11.2 µM
- Slope (% Inhibition/Concentration), range ([3]; range among individual rats): 0.269-0.963 % Inhibition/Concentration
- IC50 [3, 7]: 7.36 to 30.2 µM
- Slope (% Inhibition/Concentration), mean ± S.D. [3]: 0.475 ± 0.330 % Inhibition/Concentration

SMILES: O=C1C=C(Cl)C(=O)c2ccccc21 [Chloro-K3, 2-chloro-1,4-naphthoquinone]
- times more potent than warfarin ([3]; in vitro rat hepatic vitamin K-dependent carboxylation system): 45 times
- IC50 [3, 6]: 146 ± 62.1 µM
- Slope (% Inhibition/Concentration), range ([3]; range among individual rats): 0.738-1.55 % Inhibition/Concentration
- IC50 [3, 7]: 100 to 236 µM
- Slope (% Inhibition/Concentration), mean ± S.D. [3]: 1.20 ± 0.340 % Inhibition/Concentration

SMILES: Oc1c(Cl)c(Cl)nc(Cl)c1Cl [TCP, 2,3,5,6-Tetrachloropyridin-4-ol]
- difference between IC50 of most potent (TCP) and least potent (warfarin) compound [3]: approximately 5,000 fold
- IC50 ([3]; as printed in discussion text, read-out: average IC50): 1.23 µM
- IC50 [3, 6]: 1.23 ± 0.24 µM
- Slope (% Inhibition/Concentration), range ([3]; range among individual rats): 0.734-1.02 % Inhibition/Concentration
- IC50 [3, 7]: 0.89 to 1.44 µM
- Slope (% Inhibition/Concentration), mean ± S.D. [3]: 0.884 ± 0.117 % Inhibition/Concentration

SMILES: C/C(=C\CC1=C(Cl)C(=O)c2ccccc2C1=O)CCC[C@H](C)CCC[C@H](C)CCCC(C)C [Chloro-K1, 2-Chloro-3-phytyl-1,4-naphthoquinone]
- IC50 [3, 6]: 285 ± 89.3 µM
- Slope (% Inhibition/Concentration), range ([3]; range among individual rats): 0.469-0.898 % Inhibition/Concentration
- IC50 [3, 7]: 171 to 393 µM
- Slope (% Inhibition/Concentration), mean ± S.D. [3]: 0.634 ± 0.159 % Inhibition/Concentration

SMILES: S=C=Nc1cccc2ccccc12 [ANIT, α-naphthylisothiocyanate]
- PCA° (steady-state prothrombin complex activity before warfarin) [4]: 56.1% and 56%
- kd (first-order rate constant for degradation of PCA) [4]: 3.19e-05 s⁻¹
- R°Syn (rate of synthesis of PCA) [4]: 155 %/day
- reduction in R°Syn [4]: approximately 53%
- Normalized P∞ [5]: 15.59 dpm ^14 C incorporated/mg prot
- V/KM (intrinsic formation rate of carboxylated vitamin K-dependent proteins) [5]: 0.1104 min⁻¹
- increase in normalized P∞ ([5]; one treated rat vs normal): approximately 50%

SMILES: O=C1C(Cl)=CC(=Nc2ccc(O)cc2)C=C1Cl [2,6-DIP, 2,6-dichloroindophenol sodium]
- IC50 [3, 6]: 116 ± 39.2 µM
- Slope (% Inhibition/Concentration), range ([3]; range among individual rats): 0.940-1.36 % Inhibition/Concentration
- IC50 [3, 7]: 78.1 to 160 µM
- Slope (% Inhibition/Concentration), mean ± S.D. [3]: 1.13 ± 0.174 % Inhibition/Concentration

SMILES: CCC1(c2ccccc2)C(=O)NC(=O)NC1=O [Phenobarbital, Phenobarbital sodium]
- PCA° (steady-state prothrombin complex activity before warfarin) [4]: 143.1% and 102.7%
- kd (first-order rate constant for degradation of PCA) [4]: 4.31e-05 s⁻¹ and 4.77e-05 s⁻¹
- R°Syn (rate of synthesis of PCA) [4]: 533 %/day and 423 %/day
- average increase in PCA° beyond normal rats ([4]; two treated rats vs four normal rats): 38%
- average increase in R°Syn beyond normal rats ([4]; two treated rats vs normal rats): 44%
- Normalized P∞ [5]: 4.92 dpm ^14 C incorporated/mg prot and 5.86 dpm ^14 C incorporated/mg prot
- V/KM (intrinsic formation rate of carboxylated vitamin K-dependent proteins) [5]: 0.1174 min⁻¹ and 0.1586 min⁻¹

SMILES: ClC(Cl)(Cl)Cl [CCl4, carbon tetrachloride]
- average turnover time of PCA ([4]; group average): 3.27 ± 1.34 h
- biologic half-life of PCA ([4]; group average): 2.27±0.94 hours
- kd, average of treated rats ([4]; group average): 9.83e-05 ± 5.43e-05 s⁻¹
- kd (first-order rate constant for degradation of PCA) ([4]; listed as OCl4): 6.92e-05 s⁻¹ and 0.0001609 s⁻¹ and 6.82e-05 s⁻¹
- R°Syn (rate of synthesis of PCA) ([4]; listed as OCl4): 101 %/day and 137 %/day
- PCA° (steady-state prothrombin complex activity before warfarin) ([4]; listed as OCl4): 16.9% and 9.9% and 23.4%
- reduction in R°Syn [4]: approximately 62%
- Normalized P∞ [5]: 6.58 dpm ^14 C incorporated/mg prot and 9.86 dpm ^14 C incorporated/mg prot and 9.04 dpm ^14 C incorporated/mg prot
- V/KM (intrinsic formation rate of carboxylated vitamin K-dependent proteins) [5]: 0.0798 min⁻¹ and 0.0944 min⁻¹ and 0.1257 min⁻¹
- reduction in V/KM ([5]; two rats receiving 1.0 ml CCl4/kg): 20-30%
